The record followed here is patent publication US4719046A, “Crysene derivatives” (Burroughs Wellcome Co., priority 1984, dated 1988).

What is called MIC is the lowest concentration found to suppress growth.

SMILES strings stand for the structures. Counter-ions that a name gives are not always drawn.

One data set has as its system CD2-F1 mice. Nature of the data set: LD20 in the P388/0 test mice. It is filed as in vivo, mouse (CD2-F1). Conditions: IP days 1, 5, 9, doses on a mg/kg basis. As for the experimental part:
(§1) CD2-F1 mice, of the same sex, weighing 20±3 g, are used for this test. Control and test animals are injected intraperitoneally with a suspension of ~10^6 viable P388/0 tumor cells on day 0. In each test, several dose levels which bracket the LD20 of the compound are evaluated; each dose level group contains six animals. The test compounds are prepared either in physiologic saline containing 0.05% Tween 80 or distilled water containing 5% dextrose and are administered intraperitoneally on days 1, 5, and 9 relative to tumor implant. Doses are on a mg/kg basis according to individual animals' body weights. The day of death for each animal is recorded, the median identified for each group and the ratios of median survival time for treated (T)/control (C) groups are calculated. The criterion for activity is T/C×100≥120%.
(§2) ^A Values in parentheses are the highest nontoxic dose where the
(§3) LD20 was not determined.

Another data set has as its system melanotic melanoma B16. Nature of the data set: Melanotic Melanoma B16 test. The data set is classed as in vivo, mouse (B6C3-F1). The settings on record: median survival T/C; IP days 1, 5, 9; active if >125%; dose mg/kg: 1C 100, 6G 50, 3 70, 2 75, 18B 70.
Source text: (§4) Methods for evaluating the antitumor activity of these compounds are essentially those used in the Tumor Panel by the Developmental Therapeutics Program, Division of Cancer Treatment, National Cancer Institute, A. Goldin, et al., Methods in Cancer Research, Vol. XVI, p. 165, Academic Press (1979). Some modifications, in dose level and schedule have been made to increase the testing efficiency.
as §1
B6C3-F1 mice of the same sex, weighing 20±3 g, are used for this test. A suspension of B16 cells is prepared from a non-necrotic portion of solid tumor tissue obtained from a passage mouse. One gram of tumor is homogenized in 9 mL ice-cold Earle's salts solution and filtered through 1000 mesh screen to remove debris. 0.5 mL of the resulting brei is injected intraperitoneally into each animal. Dosing is carried out as in the P388/0 and L1210 tests. Days of death are recorded for a 60 day period and T/C ratio calculated as in the P388/0 and L1210 tests. The criterion for activity is T/C×100>125%.

Data set [1] relates to Streptococcus pyogenes (CN10). Nature of the data set: Antibacterial test, Streptococcus pyogenes (agar dilution). It is filed as cell-based. The text has this: (§5) Anitbacterial testing against […] (S3264) and Streptococcus pyogenes (CN10) was done with slight modifications using standard agar dilution assays as outlined in Manual of Clinical Microbiology Second Ed., E. H. Lennette. E. H. Spaulding and J. P. Traunt Eds., American Society for Microbiology, Washington, DC, 1974
On the technique in general: In agar dilution, organisms are placed on agar that contains the substance at set levels.

A further data set has as its system Mycoplasma smegmatis. Nature of the data set: Antibacterial test, Mycoplasma smegmatis (agar dilution). The data set is classed as cell-based.
Source text: as §5

The test system of data set [2] is lymphocytic leukemia P388/0. Nature of the data set: Lymphocytic Leukemia P388/0 Test. Conditions: median survival T/C; IP days 1, 5, 9; active if ≥120%; optimal dose mg/kg: 1B 121, 1C 115, 2 100, 3 100, 6G 65, 18B 88, 19H 110, 6H 60, 7 110, 9 300, 10B 1013, 11C 150, 12G 90, 5F 225, 13D 303, 14 196, 15B 250, 16 1012, 4B 180. It is filed as in vivo, mouse (CD2-F1).
Source text: as §4, §1

Data set [3] can be described thus: LD20 in the P388/0 test mice. The data set is classed as in vivo, mouse (CD2-F1). Conditions: mouse, in vivo, IP days 1, 5, 9, doses on a mg/kg basis, read-out: LD20 column, value in parentheses: highest nontoxic dose where the LD20 was not determined. As for the experimental part:
as §1, §2, §3

Data set [4] has as its system lymphocytic leukemia L1210. Nature of the data set: Lymphocytic Leukemia L1210 Test. It is filed as in vivo, mouse (CD2-F1). The settings on record: median survival T/C; 120 mg/kg IP days 1, 5, 9; active if ≥125%.
Source text: as §4, §1
The protocol for this test is identical to that for P388/0, except that the number of L1210 cells implanted on day 0 is ~10^5 /mouse. […]

The test system of another data set is Lewis lung carcinoma. Nature of the data set: Lewis Lung Carcinoma Test. The settings on record: median survival T/C; 105 mg/kg days 1, 5, 9; active if ≥140%. It is filed as in vivo, mouse (BD-F1; tumor from C57B1/6).
Source text: as §4
CD2-F1 mice, of the same sex, weighing 20±3 g, are used for this test. Control and test animals are injected intraperitoneally with a suspension of ~10^6 viable P388/0 tumor cells on day 0. In each test, several dose levels which bracket the LD20 of the compound are evaluated; each dose level group contains six animals. […] The day of death for each animal is recorded, the median identified for each group and the ratios of median survival time for treated (T)/control (C) groups are calculated. […]
This tumor arose spontaneously in the lung of a C57B1/6 mouse and is maintained by subcutaneous passage in that strain. […] In each test, several dose levels which bracket the LD20 for the compound are evaluated. […] The day of death for each animal is recorded, the median identified for each group and the ratios of median survival time for treated (T)/control (C) groups are calculated. […]

A further data set relates to colon 38 carcinoma. Nature of the data set: Colon 38 Carcinoma Test. The data set is classed as in vivo, mouse (C57B1/6). Conditions: tumor weight T/C at day 20; 120 mg/kg IP days 1, 5, 9; active if ≤42%.
Source text: as §4
This chemically-induced tumor arose in a C57B1/6 mouse and is maintained as a solid tumor in that mouse strain. The subcutaneously growing solid tumor is aseptically excised from passage mice and placed in sterile saline. The tumor is trimmed free of visible necrotic and connective tissue, then divided into 2-3 mm cubes. A cube is implanted subcutaneously in the ventral thoracie region with a sterile trochar on day 0. In each test several dose levels which bracket the LD20 for the compound are evaluated. Ten animals are included in each dose level group and thirty animals in the untreated control group. The test compounds are prepared either in physiologic saline containing 0.05% Tween 80 or distilled water containing 5% dextrose and are administered intraperitoneally on days 1, 5 and 9 after tumor implant. […] At day 20, the animals are sacrificed and the longest (L) and shortest (W) dimensions of each tumor measured with vernier calipers. Tumor weight is calculated from the formula (L× (W)^2 /2). […]

A further data set relates to M5076 sarcoma. Nature of the data set: M5076 Sarcoma Test. The data set is classed as in vivo, mouse (B6C3-F1). The settings on record: median survival T/C; 105 mg/kg IP days 1, 5, 9; active if ≥125%.
Source text: as §4, §1
This sarcoma arose as a solid tumor in the ovary of a C57B1/6 mouse and was subsequently converted to the ascitic form for intraperitoneal use. […]

The subject of the next data set is Herpes simplex 1/vero. Nature of the data set: Herpes simplex 1/vero plaque inhibition screen. It is filed as cell-based. The text has this:
Antiviral testing against Herpes simplex 1/vero was done using plaque inhibition methods as outlined in P. Collins and D. J. Bauer, Proc. N.Y. Acad. Sci. 284, 49 (1977) and by plaque reduction methods as outlined in P. Collins and D. J. Bauer, J. Antimicrobial Chemotherapy 3, Supplement A, 73(1977). The column headings labeled Score, Toxicity, and Zone of Inhibition refer to the plaque inhibition screen while the IC50 heading to the plaque reduction screen.

`CC(CO)(CO)NCc1ccc2ccc3c4ccccc4ccc3c2c1` [Example 19H, 2-((3-Chrysenylmethyl)amino)-2-methyl-1,3-propanediol methanesulfonate] yielded an LD20 in the data set with CD2-F1 mice of 150 mg/kg.
Consider `OCC(CO)NCc1cc2c3ccccc3ccc2c2ccccc12` [Example 14, 2-((6-Chrysenylmethyl)amino)-1,3-propanediol methanesulfonate], for which, in the data set with CD2-F1 mice, the LD20 worked out at 160 mg/kg.
As for `CS(=O)(=O)O.C[C@H](O)[C@@](C)(CO)NCc1cc2c3ccccc3ccc2c2ccccc12` (relative stereo) [Example 6H, (+-)(2R*,3S*)-2-((6-Chrysenylmethyl)amino)-2-methyl-1,3-butanediol methanesulfonate], the LD20 in the data set with CD2-F1 mice amounted to 60 mg/kg.
Turning to `CCC(CO)(CO)NCc1cc2c3ccccc3ccc2c2ccccc12.Cl` [Example 3, 2-((6-Chrysenylmethyl)amino)-2-ethyl-1,3-propanediol hydrochloride], the “T/C × 100% Excluding 60 day Survivors” value in the data set on melanotic melanoma B16 is given as “+144%”. The MIC in data set [1] is 10 µg/mL; against Mycoplasma smegmatis it was > 100 µg/mL. For the same compound, in the data set on CD2-F1 mice, the LD20 is on record as 100 mg/kg.
`COCC(C)(CO)NCc1cc2c3ccccc3ccc2c2ccccc12.Cl` (centres unmarked) [Example 9D, 3-methoxy-2-((6-chrysenylmethyl)amino)-2-methyl-1-propanol hydrochloride] came in with an LD20 with CD2-F1 mice of 425 mg/kg.
In turn, `C[C@@H](O)[C@@](C)(CO)NCc1cc2c3ccccc3ccc2c2ccccc12.Cl` (relative stereo) [Example 7, (+-)(2R*,3R*)-2-((6-Chrysenylmethyl)amino)-2-methyl-1,3-butanediol hydrochloride] came in with an LD20 in the data set with CD2-F1 mice of 100 mg/kg.
The same measure, in the same setting: the figure for `CC(CO)(CO)NCc1cc2c3ccccc3c(Cl)cc2c2ccccc12` [Example 4B, 2-(((12-Chloro-6-chrysenyl)methyl)amino)-2-methyl-1,3-propanediol methanesulfonate.1/3H2 O] is 180 mg/kg; for `CC(C)C(CO)(CO)NCc1cc2c3ccccc3ccc2c2ccccc12` [Example 11C, 2-((6-Chrysenylmethyl)amino)-2-isopropyl-1,3-propanediol hydrochloride 1/3 H2 O] it is 150 mg/kg.
On the same count and under the same terms, the figure for `C[C@@H](O)C(C)(NCc1cc2c3ccccc3ccc2c2ccccc12)[C@@H](C)O` (relative stereo) [Example 5F] is 225 mg/kg.
With `CS(=O)(=O)O.C[C@H](O)C(NCc1cc2c3ccccc3ccc2c2ccccc12)[C@@H](C)O` (stereo partly drawn) [Example 13D, meso-3-((6-Chrysenylmethyl)amino)-2,4-pentanediol methanesulfonate], the “T/C × 100% (Excluding 30 Day Survivors)” value in data set [2] is “+200%”. In addition, in the data set on CD2-F1 mice, the LD20 is 675 mg/kg.
Consider `O[C@@H]1CCC[C@H](O)[C@H]1NCc1cc2c3ccccc3ccc2c2ccccc12` [Example 10B, (1α,2β,3α)-2-((6-Chrysenylmethyl)amino)-1,3-cyclohexanediol hydrochloride], for which the MTD in [3] was found to be 675 mg/kg.
In the case of `CC(=O)OCC(C)(COC(C)=O)NCc1cc2c3ccccc3ccc2c2ccccc12` [Example 16, 2-((6-Chrysenylmethyl)amino)-2-methyl-1,3-propanediol diacetate], the MIC (in [1]; in the data set on Mycoplasma smegmatis) was 10 µg/mL each time. The compound further yielded an LD20 in the data set with CD2-F1 mice of 675 mg/kg.
Regarding `CC(CO)(CO)NCc1cc2c3ccccc3ccc2c2ccccc12` [Example 1C, 2-((6-Chrysenylmethyl)amino)-2-methyl-1,3-propanediol methanesulfonate], in data set [4], the “T/C × 100% Excluding 30 day Survivors” value is “+252%”. Also, the “T/C × 100% Excluding 60 day Survivors” value in the data set on melanotic melanoma B16 is listed as “+146%”; in the data set with Lewis lung carcinoma it was “+191%”. The results for the “T/C × 100%” value with colon 38 carcinoma and in the data set with M5076 sarcoma were 36% and “+168%”, respectively. Further, the LD20 with CD2-F1 mice is on record as 105 mg/kg.
Regarding `CC(CO)(CCO)NCc1cc2c3ccccc3ccc2c2ccccc12` (centres unmarked) [Example 12G, 2-((6-chrysenylmethyl)amino)-2-methyl-1,4-butanediol hyrochloride.1/3EtOH], the LD20 with CD2-F1 mice was 90 mg/kg.
On the same count and under the same terms, the figure for `CCc1cc2c3ccccc3c(CNC(C)(CO)CO)cc2c2ccccc12` [Example 15B, 2-(((12-Ethyl-6-chrysenyl)methyl)amino)-2-methyl-1,3-propanediol methanesulfonate] is 150 mg/kg.
Consider `CC(CO)(CO)NCc1cc2c3ccccc3ccc2c2ccccc12.Cl` [Example 1B, 2-((6-Chrysenylmethyl)amino)-2-methyl-1,3-propanediol hydrochloride], for which the “Zone of Inhibition” value in the data set on Herpes simplex 1/vero turned out to be 43. The MIC (in data set [1]; in the data set with Mycoplasma smegmatis) was ≤ 10 µg/mL each time. Moreover, the LD20 in the data set on CD2-F1 mice turned out to be 140 mg/kg.
Regarding `Cl.OCC(CO)(CO)NCc1cc2c3ccccc3ccc2c2ccccc12` [Example 2, 2-((6-chrysenylmethyl)amino)-2-hydroxymethyl-1,3-propanediol hydrochloride], the “T/C × 100% Excluding 60 day Survivors” value in the data set with melanotic melanoma B16 was “+144%”. Moreover, the MIC (in data set [1]; in the data set with Mycoplasma smegmatis) was 10 µg/mL throughout. In the data set with CD2-F1 mice, this compound registered an LD20 of 100 mg/kg.
With `CC(C)(CO)NCc1cc2c3ccccc3ccc2c2ccccc12.Cl` [Example 18B, 2-((6-Chrysenylmethyl)amino)-2-methylpropanol hydrochloride], the “T/C × 100% Excluding 60 day Survivors” value in the data set on melanotic melanoma B16 is listed as “+125%”. The MIC is ≤ 3 µg/mL in data set [1] and 10 µg/mL in the data set with Mycoplasma smegmatis. For the same compound, the LD20 with CD2-F1 mice was found to be 80 mg/kg.
